Source: patent US8012983B2, “Substituted triazolopyrazines useful for the treatment of degenerative and inflammatory diseases” (Galapagos NV, priority 2008, dated 2011)

Target: T1, MAPKAPK5 (Homo sapiens, UniProt Q8IW41)
T1 sequence (Q8IW41 1-471 isoform Q8IW41-2): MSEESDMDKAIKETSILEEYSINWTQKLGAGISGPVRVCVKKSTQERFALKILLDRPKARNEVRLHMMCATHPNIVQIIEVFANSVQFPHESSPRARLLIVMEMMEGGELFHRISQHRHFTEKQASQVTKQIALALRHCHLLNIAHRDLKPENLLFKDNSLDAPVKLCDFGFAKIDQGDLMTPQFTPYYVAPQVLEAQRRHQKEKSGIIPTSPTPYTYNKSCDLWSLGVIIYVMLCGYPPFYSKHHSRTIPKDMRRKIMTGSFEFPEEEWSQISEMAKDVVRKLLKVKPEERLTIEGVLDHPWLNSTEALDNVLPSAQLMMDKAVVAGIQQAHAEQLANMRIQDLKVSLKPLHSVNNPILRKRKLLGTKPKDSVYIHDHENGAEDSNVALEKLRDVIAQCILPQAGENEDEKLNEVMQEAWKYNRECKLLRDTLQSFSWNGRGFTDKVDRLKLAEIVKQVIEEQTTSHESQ
Assay: MAPKAP-K5 FlashPlate kinase assay
Assay type: biochemical
Conditions: 0.6 μM ATP, 30 minutes, room temperature
Method: MAPKAP-K5 reactions are performed in FlashPlate format using 0.1 or 0.2 μCi 33P-ATP; 0.6 μM ATP; 1 mU MAPKAP-K5; 3 μM MAPKAP-K5 peptide substrate, incubated at room temperature for 30 minutes.
The MAPKAP-K5 kinase reaction is performed in a 384 well polypropylene plate (Matrix Technologies) and then transferred to a streptavidin-coated 384 well flashplate (Perkin-Elmer). To wells containing 2 μL test compound or standard inhibitor, 13 μL Enzyme mix or diluent are added using a Hydra (Robbins Scientific). Reactions are started by addition of 10 μL of [2.5×] substrate cocktail using a Multidrop (Thermo-Labsystems), to give final concentrations in the assay of: • 1 mU MAPKAP-K5 • 3 μM MAPKAP-K5 peptide substrate • 0.6 μM ATP • 0.004 μCi [33P]-γ-ATP/μL • 1× reaction buffer
Plates are incubated at room temperature for 30 minutes. Reactions are terminated by the addition of 25 μL EDTA (50 mM) to each well using a Micro-fill (Biotek). Reactions are transferred to a streptavidin-coated flashplate using a Zymark robotic system. Plates are incubated for 60 minutes at room temperature. All wells are washed 3 times with 100 μl phosphate buffered saline using a Tecan plate washer. Radioactivity is determined by scintillation counting of the flashplate (empty wells) on a Packard TopCount.
Enzyme Mix: • Enzyme • 50 mM Tris Hcl (pH 7.5) • 0.1 mM EGTA • 2 mM DTT • 1 mg/mL BSA
Reaction Buffer: • 50 mM Tris Hcl (pH 7.5) • 0.1 mM EGTA • 10 mM Magnesium acetate • 2 mM DTT

SMILES | IC50
CC(C)N1C[C@@H]2C[C@H]1CN2c1ccc(Nc2ncc(-c3coc(C(N)=O)c3)n3ncnc23)cc1 [Compound 2, 4-{8-[4-((1S,4S)-5-Isopropyl-2,5-diaza-bicyclo[2.2.1]hept-2-yl)-phenylamino]-[1,2,4]triazolo[1,5-a]pyrazin-5-yl}-furan-2-carboxamide] | 0.01 to 100 nM
CCOC(=O)c1cc(-c2cnc(Nc3ccc(N4C[C@@H]5C[C@H]4CN5C(C)C)cc3)c3ncnn23)[nH]n1 [Compound 21, Ethyl 5-(8-(4-((1S,4S)-5-isopropyl-2,5-diazabicyclo[2.2.1]heptan-2-yl)phenylamino)-[1,2,4]triazolo[1,5-a]pyrazin-5-yl)-1H-pyrazole-3-carboxylate] | > 1000 nM
CCOc1cc(-c2cnc(Nc3ccc(N4C[C@@H]5C[C@H]4CN5C(C)C)cc3)c3ncnn23)ccn1 [Compound 19, 5-(2-ethoxypyridin-4-yl)-N-(4-((1S,4S)-5-isopropyl-2,5-diazabicyclo[2.2.1]heptan-2-yl)phenyl)-[1,2,4]triazolo[1,5-a]pyrazin-8-amine] | > 1000 nM
CCOc1cc(-c2cnc(Nc3ccc(N4C[C@@H]5C[C@H]4CN5C(C)C)cc3)c3nccn23)ccn1 [Compound 22, 5-(2-ethoxypyridin-4-yl)-N-(4-((1S,4S)-5-isopropyl-2,5-diazabicyclo[2.2.1]heptan-2-yl)phenyl)imidazo[1,2-a]pyrazin-8-amine] | > 1000 nM
CC(C)N1C[C@@H]2C[C@H]1CN2c1ccc(Nc2ncc(-c3noc(C(N)=O)n3)n3ncnc23)cc1 [Compound 23, 3-(8-(4-((1S,4S)-5-isopropyl-2,5-diazabicyclo[2.2.1]heptan-2-yl)phenylamino)-[1,2,4]triazolo[1,5-a]pyrazin-5-yl)-1,2,4-oxadiazole-5-carboxamide] | > 1000 nM
CC(C)N1C2CCC1CN(c1ccc(Nc3ncc(-c4coc(C(N)=O)c4)n4ncnc34)cc1)C2 [Compound 12, 4-{8-(4-(8-isopropyl-3,8-diazabicyclo[3.2.1]octan-3-yl)phenylamino)[1,2,4]-triazolo[1,5-a]pyrazin-5-yl}-furan-2-carboxamide] | 0.01 to 100 nM
CC(C)N1C[C@@H]2C[C@H]1CN2c1ccc(Nc2ncc(-c3ccc4c(c3)CNC4=O)n3ncnc23)cc1 [Compound 1, 5-{8-[4-((1S,4S)-5-Isopropyl-2,5-diaza-bicyclo[2.2.1]hept-2-yl)-phenylamino]-[1,2,4]triazolo[1,5-a]pyrazin-5-yl}-2,3-dihydro-isoindol-1-one] | 0.01 to 100 nM
CC(C)N1CC2CCC(C1)N2c1ccc(Nc2ncc(-c3coc(C(N)=O)c3)n3ccnc23)cc1 [Compound 11, 4-{8-(4-(3-isopropyl-3,8-diazabicyclo[3.2.1]octan-8-yl)phenylamino)-imidazo[1,2-a]pyrazin-5-yl}-furan-2-carboxamide] | 101 to 500 nM
CC(C)N1C[C@@H]2C[C@H]1CN2c1ccc(Nc2ncc(-c3cc[nH]c(=O)c3)n3ncnc23)cc1 [Compound 20, 4-(8-(4-((1S,4S)-5-isopropyl-2,5-diazabicyclo[2.2.1]heptan-2-yl)phenylamino)-[1,2,4]triazolo[1,5-a]pyrazin-5-yl)pyridin-2(1H)-one] | > 1000 nM
CC(C)N1C[C@@H]2C[C@H]1CN2c1ccc(Nc2ncc(-c3ccc4c(c3)CNC4=O)n3ncnc23)cn1 [Compound 18, 5-{8-(6-((1S,4S)-5-isopropyl-2,5-diazabicyclo[2.2.1]heptan-2-yl)pyridin-3-ylamino)-[1,2,4]triazolo[1,5-a]pyrazin-5-yl}-2,3-dihydro-isoindol-1-one] | 101 to 500 nM
CC(C)(C)N1C[C@@H]2C[C@H]1CN2c1ccc(Nc2ncc(-c3ccc4c(c3)CNC4=O)n3ncnc23)cc1 [Compound 16, 5-{8-(4-((1S,4S)-5-tert-butyl-2,5-diazabicyclo[2.2.1]heptan-2-yl)phenylamino)-[1,2,4]triazolo-[1,5-a]pyrazin-5-yl}-2,3-dihydro-isoindol-1-one] | 101 to 500 nM

Results, then the compound that gave them:

IC50 | SMILES
101 to 500 nM | CC(C)N1C[C@@H]2C[C@H]1CN2c1ccc(Nc2ncc(-c3cc(C(N)=O)n[nH]3)n3ncnc23)cn1 [Compound 15, 5-{8-(6-((1S,4S)-5-isopropyl-2,5-diazabicyclo[2.2.1]heptan-2-yl)pyridin-3-ylamino)-[1,2,4]triazolo[1,5-a]pyrazin-5-yl}-1H-pyrazole-3-carboxylic acid amide]
101 to 500 nM | CC(C)N1C[C@@H]2C[C@H]1CN2c1ccc(Nc2ncc(-c3coc(C(N)=O)c3)n3ccnc23)cc1 [Compound 4, 4-{8-[4-((1S,4S)-5-Isopropyl-2,5-diaza-bicyclo[2.2.1]hept-2-yl)-phenylamino]-imidazo[1,2-a]pyrazin-5-yl}-furan-2-carboxamide]
101 to 500 nM | CC(C)N1C[C@@H]2C[C@H]1CN2c1cccc(Nc2ncc(-c3coc(C(N)=O)c3)n3ccnc23)c1 [Compound 25, 4-(8-(3-((1S,4S)-5-isopropyl-2,5-diazabicyclo[2.2.1]heptan-2-yl)phenylamino)imidazo[1,2-a]pyrazin-5-yl)furan-2-carboxamide]
0.01 to 100 nM | CC(C)N1C[C@@H]2C[C@H]1CN2c1cccc(Nc2ncc(-c3coc(C(N)=O)c3)n3ncnc23)c1 [Compound 24, 4-(8-(3-((1S,4S)-5-isopropyl-2,5-diazabicyclo[2.2.1]heptan-2-yl)phenylamino)-[1,2,4]triazolo[1,5-a]pyrazin-5-yl)furan-2-carboxamide]
101 to 500 nM | CC(C)N1C[C@@H]2C[C@H]1CN2c1ccc(Nc2ncc(-c3cc(C(N)=O)n[nH]3)n3ncnc23)cc1 [Compound 5, 5-{8-(4-((1S,4S)-5-isopropyl-2,5-diazabicyclo[2.2.1]heptan-2-yl)phenyl-amino)-[1,2,4]triazolo[1,5-a]pyrazin-5-yl}-1H-pyrazole-3-carboxamide]
101 to 500 nM | CC(C)N1C[C@@H]2C[C@H]1CN2c1cccc(Nc2ncc(-c3ccc4c(c3)CNC4=O)n3ncnc23)c1 [Compound 26, 5-(8-(3-((1S,4S)-5-isopropyl-2,5-diazabicyclo[2.2.1]heptan-2-yl)phenylamino)-[1,2,4]triazolo[1,5-a]pyrazin-5-yl)isoindolin-1-one]
0.01 to 100 nM | CC(C)(C)N1C[C@@H]2C[C@H]1CN2c1ccc(Nc2ncc(-c3coc(C(N)=O)c3)n3ncnc23)cc1 [Compound 3, 4-{8-[4-((1S,4S)-5-tert-Butyl-2,5-diaza-bicyclo[2.2.1]hept-2-yl)-phenylamino]-[1,2,4]triazolo[1,5-a]pyrazin-5-yl}-furan-2-carboxamide]
0.01 to 100 nM | CC(C)N1CC2CCC1CN2c1ccc(Nc2ncc(-c3coc(C(N)=O)c3)n3ncnc23)cc1 (stereo not shown) [Compound 9, 4-{8-(4-(5-isopropyl-2,5-diazabicyclo[2.2.2]octan-2-yl)phenylamino)[1,2,4]-triazolo[1,5-a]pyrazin-5-yl}-furan-2-carboxamide]
101 to 500 nM | CC(C)(C)N1C[C@@H]2C[C@H]1CN2c1ccc(Nc2ncc(-c3cc(C(N)=O)n[nH]3)n3ncnc23)cc1 [Compound 17, 5-{8-(4-((1S,4S)-5-tert-butyl-2,5-diazabicyclo[2.2.1]heptan-2-yl)phenyl-amino)-[1,2,4]triazolo[1,5-a]pyrazin-5-yl}-1H-pyrazole-3-carboxylic acid amide]
101 to 500 nM | CC(C)N1C[C@@H]2C[C@H]1CN2c1ccc(Nc2ncc(-c3cc[nH]c(=O)c3)n3ccnc23)cc1 [Compound 8, 4-{8-(4-((1S,4S)-5-isopropyl-2,5-diazabicyclo[2.2.1]heptan-2-yl)phenyl-amino)imidazo[1,2-a]pyrazin-5-yl}-1H-pyridin-2-one]
101 to 500 nM | CC(C)(C)N1C[C@@H]2C[C@H]1CN2c1ccc(Nc2ncc(-c3coc(C(N)=O)c3)n3ccnc23)cc1 [Compound 6]
